The test has as its system 996289-038-R-J1-PDC complex spheroid viability. The test can be described thus: Anticancer human tumor 996289-038-R-J1-PDC patient-derived colon adenocarcinoma cell line growth inhibition [CLK]. The note with it: for viability, T/C: stronger effect = lower value. The text has this:
A high-throughput screen of multi-cell type tumor spheroids was designed to identify active combinations of […] and targeted small molecules. Complex spheroids include a stromal component modeled by human endothelial cells (HUVEC) and fibroblasts modeled by human mesenchymal stem cells (MSCs). The concentration ranges selected for each drug and investigational agent were based upon clinically achievable concentrations if the clinical Cmax of the agent was known.
Compounds. The drugs and investigational agents: cirtuvivint (SM08502; NSC835563), CC-671 (NSC850746), vemurafenib (NSC761431), tapotoclax (NSC804041), sotorasib (NSC818433), adagrasib (NSC831453), MRTX-1133 (NSC836407), BAY2416964 (NSC825713), copanlisib (NSC816437), inavolisib (NSC800729), abemaciclib (NSC768073), osimertinib (NSC779217), entinostat (NSC756642), eltanexor (KPT-8602, NSC794443), venetoclax (NSC766270), ceralasertib (NSC777638), bortezomib (NSC756655), olaparib (NSC753686), talazoparib (NSC767125), alisertib (NSC759677), peposertib (NSC802822), gemcitabine (NSC613327), 5-fluorouracil (NSC19893), SN-38 (NSC673596), oxaliplatin (NSC266046), paclitaxel (NSC125973), and doxorubicin (NSC123127), were obtained from the National Cancer Institute (NCI) Developmental Therapeutics Program Chemical Repository. The FDA-approved anticancer drug set is available from the Developmental Therapeutics Program at https://dtp.cancer.gov/organization/dscb/obtaining/available plates.htm. […] The stock solutions were prepared in dimethyl sulfoxide (DMSO, Sigma-Aldrich, St. Louis, MO, cat. D2650), except for the platinum complexes which were prepared in saline (Quality Biological, Gaithersburg, MD, cat. 114-055-101), at 800-fold the tested concentration and stored at -70 degrees C prior to their use. All drugs and investigational agents were tested over a range starting from a high concentration at or near the clinical Cmax and decreasing in half-log increments. If the clinical Cmax for an agent had not been determined, the highest concentration tested was 10 microM.
Cell Culture. All cells were maintained in an incubator at 37 degrees C and 5% CO2 with 95% humidity. The PDC lines were cultured according to standard operating procedures established by the NCI PDMR. Briefly, all PDCs were thawed and cultured in Matrigel-coated flasks prepared with a working solution of 1X Ham's F-12 nutrient mix, without supplementation (Invitrogen, Waltham, MA, cat. 11765054), 100 U/mL penicillin-streptomycin (Invitrogen, cat. 15140122), and 2.5% Matrigel (Corning Inc., Corning, NY, cat. 354248) for the first three passages. The 947758-054-R-J2-PDC line was cultured in 6B/Colon 1A media, which includes advanced DMEM/F-12 (Thermo Fisher Scientific, cat. 12634028), 10 mM HEPES (Thermo Fisher Scientific, cat. 15630080), 1X GlutaMAX supplement (Thermo Fisher Scientific, cat. 35050061), 0.1 mg/mL primocin (InvivoGen, cat. ant-pm-2), 10% defined fetal bovine serum, heat inactivated (HyClone Laboratories Inc., cat. SH30070.03HI), 1.25 mM N-Acetyl-L-cysteine (Sigma-Aldrich, cat. A9165), 10 mM nicotinamide (Sigma-Aldrich, cat. N0636), 1X B-27 supplement (Thermo Fisher Scientific, cat. 17504044), 1X N-2 supplement (Thermo Fisher Scientific, cat. 17502048), and 10 microM Y-27632 dihydrochloride (Tocris Bioscience, cat. 1254). The 876862-298-R-J1-PDC was cultured in 6E media, which includes all 6B/Colon 1A media components plus 50% L-WRN conditioned media (ATCC, cat. CRL-3276), 50 ng/mL recombinant human EGF recombinant protein (hEGF; Thermo Fisher Scientific, cat. PHG0311), 10 ng/mL recombinant human fibroblast growth factor 10 (hGFG-10; PeproTech, cat. 100-26), 1 ng/mL recombinant human fibroblast growth factor 2 (hFGF-2; PeproTech, cat. 100-18B), and 1 µM prostaglandin E2 (PGE2; Tocris, cat. 2296). The 227483-062-R1-J1-PDC line was cultured in Panc media, containing all 6E components except hFGF-2, with the addition of 500 nM SB-431542 (Selleckchem, cat. S1067) and 10 nM gastrin (Tocris, cat. 3006). […]

Several values for one entry are separate records, joined by “and”; a condition that tells them apart may be missing. Equal entries are not always repeated.
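Note: spheroids exposed to the agents for 7 days before readout.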

One may read the viability, T/C as the result in the treated group divided by that in the control group, in per cent. In general, IC50 refers to the concentration needed to halve the response being measured. Regarding `Cn1ncnc1[C@H]1c2n[nH]c(=O)c3cc(F)cc(c23)N[C@@H]1c1ccc(F)cc1`, the viability, T/C runs as follows: (compound 0.000316 µM) 98% and 109%; (compound 0.001 µM) 90.6% and 97.8%; (compound 0.00316 µM) 107% and 108%; (compound 0.01 µM) 103% and 105%; (compound 0.0316 µM) 99% and 117%; (compound 0.1 µM) 85.3% and 95.5%. Also, the IC50 (curve of compound) is above 100 nM.

For the origin of these results see PubChem BioAssay AID2060600 (Molecular Pharmacology Branch, DTP, NCI, 2025).
